Measured values taken from publication PMC12514245, “Impaired migration and lung invasion of human melanoma by a novel small molecule targeting the transmembrane domain of death receptor p75^NTR” (EMBO Molecular Medicine, 2025).

Tested on: A875 NT cells
Test: Wound healing cell motility assay, A875 NT
Format: cell-based, human
Conditions: for Fold (wound area) / Wound area (Fold): A875 NT; for Fold (wound area): 0.75uM
Procedure: For wound healing assay, cells were grown until confluency and subjected to a wound across the cell mono-layer. Cells were then incubated with serum-free media either with DMSO or a small molecule (with or without 5 µM Q_VD_poH) and imaged at specific time-points. Cell migration is reflected as fold change in wound area over time.

`Cc1cccc(-c2cncc(Nc3ccc(Br)c(Cl)c3Cl)n2)c1C` [Np75-4A22] was tested, and the “Fold (wound area)” value (0 h, Average) was 1.000 Fold, the “Fold (wound area)” value (0 h, n1) was 1.000 Fold and the “Fold (wound area)” value (0 h, n2) was 1.000 Fold. For the same molecule, the “Fold (wound area)” value (0 h, n3) was 1.000 Fold, the “Fold (wound area)” value (3 h, Average) was 0.916 Fold and the “Fold (wound area)” value (3 h, n1) was 0.908 Fold. The “Fold (wound area)” value (3 h, n2) was 0.920 Fold, the “Fold (wound area)” value (3 h, n3) was 0.920 Fold and the “Fold (wound area)” value (6 h, Average) was 0.871 Fold. For the same molecule, the “Fold (wound area)” value (6 h, n1) was 0.867 Fold, the “Fold (wound area)” value (6 h, n2) was 0.870 Fold and the “Fold (wound area)” value (6 h, n3) was 0.875 Fold. The “Fold (wound area)” value (9 h, Average) was 0.851 Fold, the “Fold (wound area)” value (9 h, n1) was 0.821 Fold and the “Fold (wound area)” value (9 h, n2) was 0.862 Fold. The “Fold (wound area)” value (9 h, n3) was 0.870 Fold, the “Fold (wound area)” value (12 h, Average) was 0.799 Fold and the “Fold (wound area)” value (12 h, n1) was 0.783 Fold. The “Fold (wound area)” value (12 h, n2) was 0.824 Fold, the “Fold (wound area)” value (12 h, n3) was 0.790 Fold and the “Fold (wound area)” value (15 h, Average) was 0.781 Fold. For the same molecule, the “Fold (wound area)” value (15 h, n1) was 0.755 Fold, the “Fold (wound area)” value (15 h, n2) was 0.799 Fold and the “Fold (wound area)” value (15 h, n3) was 0.789 Fold. The “Fold (wound area)” value (18 h, Average) was 0.759 Fold, the “Fold (wound area)” value (18 h, n1) was 0.732 Fold and the “Fold (wound area)” value (18 h, n2) was 0.791 Fold. The “Fold (wound area)” value (18 h, n3) was 0.755 Fold, the “Fold (wound area)” value (21 h, Average) was 0.739 Fold and the “Fold (wound area)” value (21 h, n1) was 0.694 Fold. The “Fold (wound area)” value (21 h, n2) was 0.751 Fold, the “Fold (wound area)” value (21 h, n3) was 0.773 Fold and the “Fold (wound area)” value (24 h, Average) was 0.707 Fold. The “Fold (wound area)” value (24 h, n1) was 0.674 Fold, the “Fold (wound area)” value (24 h, n2) was 0.730 Fold and the “Fold (wound area)” value (24 h, n3) was 0.715 Fold. The “Wound area (Fold)” value (1uM, 0 h, Mean) was 1.000 Fold, the “Wound area (Fold)” value (1uM, 0 h, n1) was 0.9625 Fold and the “Wound area (Fold)” value (1uM, 0 h, n2) was 0.9804 Fold. For the same molecule, the “Wound area (Fold)” value (1uM, 0 h, n3) was 1.057 Fold, the “Wound area (Fold)” value (1uM, 3 h, Mean) was 0.967 Fold and the “Wound area (Fold)” value (1uM, 3 h, n1) was 0.9475 Fold. The “Wound area (Fold)” value (1uM, 3 h, n2) was 1.012 Fold, the “Wound area (Fold)” value (1uM, 3 h, n3) was 0.9416 Fold and the “Wound area (Fold)” value (1uM, 6 h, Mean) was 0.905 Fold. For the same molecule, the “Wound area (Fold)” value (1uM, 6 h, n1) was 0.8734 Fold, the “Wound area (Fold)” value (1uM, 6 h, n2) was 0.9482 Fold and the “Wound area (Fold)” value (1uM, 6 h, n3) was 0.8944 Fold. For the same molecule, the “Wound area (Fold)” value (1uM, 9 h, Mean) was 0.855 Fold, the “Wound area (Fold)” value (1uM, 9 h, n1) was 0.8188 Fold and the “Wound area (Fold)” value (1uM, 9 h, n2) was 0.9061 Fold. For the same molecule, the “Wound area (Fold)” value (1uM, 9 h, n3) was 0.8389 Fold, the “Wound area (Fold)” value (1uM, 12 h, Mean) was 0.827 Fold and the “Wound area (Fold)” value (1uM, 12 h, n1) was 0.7941 Fold. For the same molecule, the “Wound area (Fold)” value (1uM, 12 h, n2) was 0.8768 Fold, the “Wound area (Fold)” value (1uM, 12 h, n3) was 0.8105 Fold and the “Wound area (Fold)” value (1uM, 15 h, Mean) was 0.795 Fold. For the same molecule, the “Wound area (Fold)” value (1uM, 15 h, n1) was 0.7522 Fold, the “Wound area (Fold)” value (1uM, 15 h, n2) was 0.8472 Fold and the “Wound area (Fold)” value (1uM, 15 h, n3) was 0.7844 Fold. The “Wound area (Fold)” value (1uM, 18 h, Mean) was 0.773 Fold, the “Wound area (Fold)” value (1uM, 18 h, n1) was 0.739 Fold and the “Wound area (Fold)” value (1uM, 18 h, n2) was 0.8198 Fold. The “Wound area (Fold)” value (1uM, 18 h, n3) was 0.7589 Fold, the “Wound area (Fold)” value (1uM, 21 h, Mean) was 0.762 Fold and the “Wound area (Fold)” value (1uM, 21 h, n1) was 0.7242 Fold. For the same molecule, the “Wound area (Fold)” value (1uM, 21 h, n2) was 0.8105 Fold, the “Wound area (Fold)” value (1uM, 21 h, n3) was 0.7528 Fold and the “Wound area (Fold)” value (1uM, 24 h, Mean) was 0.743 Fold. For the same molecule, the “Wound area (Fold)” value (1uM, 24 h, n1) was 0.7122 Fold, the “Wound area (Fold)” value (1uM, 24 h, n2) was 0.7843 Fold and the “Wound area (Fold)” value (1uM, 24 h, n3) was 0.7318 Fold. The “Wound area (Fold)” value (2uM, 0 h, Mean) was 1.000 Fold, the “Wound area (Fold)” value (2uM, 0 h, n1) was 1.119 Fold and the “Wound area (Fold)” value (2uM, 0 h, n2) was 0.971 Fold. For the same molecule, the “Wound area (Fold)” value (2uM, 0 h, n3) was 0.910 Fold, the “Wound area (Fold)” value (2uM, 3 h, Mean) was 0.939 Fold and the “Wound area (Fold)” value (2uM, 3 h, n1) was 0.920 Fold. The “Wound area (Fold)” value (2uM, 3 h, n2) was 0.934 Fold, the “Wound area (Fold)” value (2uM, 3 h, n3) was 0.964 Fold and the “Wound area (Fold)” value (2uM, 6 h, Mean) was 0.916 Fold. For the same molecule, the “Wound area (Fold)” value (2uM, 6 h, n1) was 0.889 Fold, the “Wound area (Fold)” value (2uM, 6 h, n2) was 0.924 Fold and the “Wound area (Fold)” value (2uM, 6 h, n3) was 0.935 Fold. The “Wound area (Fold)” value (2uM, 9 h, Mean) was 0.883 Fold, the “Wound area (Fold)” value (2uM, 9 h, n1) was 0.869 Fold and the “Wound area (Fold)” value (2uM, 9 h, n2) was 0.889 Fold. For the same molecule, the “Wound area (Fold)” value (2uM, 9 h, n3) was 0.891 Fold, the “Wound area (Fold)” value (2uM, 12 h, Mean) was 0.872 Fold and the “Wound area (Fold)” value (2uM, 12 h, n1) was 0.845 Fold. For the same molecule, the “Wound area (Fold)” value (2uM, 12 h, n2) was 0.886 Fold, the “Wound area (Fold)” value (2uM, 12 h, n3) was 0.885 Fold and the “Wound area (Fold)” value (2uM, 15 h, Mean) was 0.864 Fold. The “Wound area (Fold)” value (2uM, 15 h, n1) was 0.827 Fold, the “Wound area (Fold)” value (2uM, 15 h, n2) was 0.886 Fold and the “Wound area (Fold)” value (2uM, 15 h, n3) was 0.880 Fold. The “Wound area (Fold)” value (2uM, 18 h, Mean) was 0.859 Fold, the “Wound area (Fold)” value (2uM, 18 h, n1) was 0.819 Fold and the “Wound area (Fold)” value (2uM, 18 h, n2) was 0.879 Fold. The “Wound area (Fold)” value (2uM, 18 h, n3) was 0.879 Fold, the “Wound area (Fold)” value (2uM, 21 h, Mean) was 0.856 Fold and the “Wound area (Fold)” value (2uM, 21 h, n1) was 0.813 Fold. For the same molecule, the “Wound area (Fold)” value (2uM, 21 h, n2) was 0.878 Fold, the “Wound area (Fold)” value (2uM, 21 h, n3) was 0.878 Fold and the “Wound area (Fold)” value (2uM, 24 h, Mean) was 0.847 Fold. The “Wound area (Fold)” value (2uM, 24 h, n1) was 0.809 Fold, the “Wound area (Fold)” value (2uM, 24 h, n2) was 0.868 Fold and the “Wound area (Fold)” value (2uM, 24 h, n3) was 0.864 Fold. For the same molecule, the wound healing assay (low micromolar and submicromolar concentrations) was “considerable inhibitory activity”.
